Laboratory results published in publication PMC9850727, “Benzoxazolone-5-Urea Derivatives as Human Soluble Epoxide Hydrolase (sEH) Inhibitors” (ACS Omega, 2023).

Columns and labels:
human recombinant sEH = target: T1, human recombinant sEH (Homo sapiens, UniProt P34913); assay: Cell-free sEH activity assay (fluorescence-based, PHOME substrate); type: biochemical; settings: mean ± SEM, n = 3, benzoxazolone-ureas (Table 2); for sEH activity % of control at 1 μM / sEH activity % of control at 10 μM: residual activity; for IC50: cell-free assay
T1 construct: made in house; host or cells: Sf9 cells infected with recombinant baculovirus (from Dr. Bruce Hammock, UC Davis)
T1 sequence (P34913 1-555): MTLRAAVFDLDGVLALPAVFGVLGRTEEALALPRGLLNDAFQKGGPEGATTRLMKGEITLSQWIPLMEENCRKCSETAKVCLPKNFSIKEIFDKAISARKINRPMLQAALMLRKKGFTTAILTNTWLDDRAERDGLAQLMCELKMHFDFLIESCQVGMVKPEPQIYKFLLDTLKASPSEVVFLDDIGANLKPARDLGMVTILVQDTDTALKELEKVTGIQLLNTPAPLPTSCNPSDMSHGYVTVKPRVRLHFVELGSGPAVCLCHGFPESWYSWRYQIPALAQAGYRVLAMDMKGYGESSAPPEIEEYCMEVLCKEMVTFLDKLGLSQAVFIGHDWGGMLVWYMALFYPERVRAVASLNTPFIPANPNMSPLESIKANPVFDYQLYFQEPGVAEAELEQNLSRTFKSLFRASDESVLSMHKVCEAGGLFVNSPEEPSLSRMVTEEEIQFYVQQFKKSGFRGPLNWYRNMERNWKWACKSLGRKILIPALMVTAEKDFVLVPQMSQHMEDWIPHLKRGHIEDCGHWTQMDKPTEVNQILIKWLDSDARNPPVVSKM
From the text: Inspired by the reported crystallographic screening studies,[12],[13],[15] a series of aryl amide (12, 15–21) or urea (31–39) derivatives with a benzoxazolone head group were synthesized and assessed for inhibition of human recombinant sEH in a cell-free activity assay[27] (Tables 1 and 2). […] Consequently, compounds in which the amide group is attached to the benzoxazolone ring through NH could outperform their direct reversed analogues by more favorable interactions in the central pocket of sEH. In addition, simple methylation of the benzoxazolone NH in 17–18 engendered noticeable differences in sEH inhibition relative to the unmethylated counterparts 15–16, implying that a free NH with H-bond donor property at this location is also important for the observed potency. Subsequently, the positioning of the amide group at the 5-position of the benzoxazolone ring also retained the inhibitory activity.
Human recombinant sEH was expressed and purified as published before.[31] Briefly, Sf9 cells were infected with a recombinant baculovirus (obtained from Dr. Bruce Hammock, University of California, Davis, CA). Following 72 h of transfection, the cells were centrifuged and then sonicated (3 × 10 s at 4 °C) in lysis buffer comprising glycerol (10%), NaHPO4 (50 mM, pH 8), leupeptin (10 μg/mL), NaCl (300 mM), phenylmethanesulfonyl fluoride (1 mM), EDTA (1 mM), and soybean trypsin inhibitor (60 μg/mL). After centrifugation at 100,000g (60 min, 4 °C), the obtained supernatants were subjected to a benzylthio-sepharose-affinity chromatography and eluted with 4-fluorochalcone oxide in PBS containing 1 mM DTT and 1 mM EDTA for purification of sEH. The enzyme was dialyzed and concentrated (Millipore Amicon-Ultra-15 centrifugal filter), and the solution was further assayed for total protein content by a protein detection kit (Bio-Rad Laboratories, Munich, Germany). The epoxide hydrolase activity was measured using a fluorescence-based assay, as reported before.[27] In brief, sEH was diluted in Tris buffer (25 mM, pH 7) containing BSA (0.1 mg/mL) to a suitable enzyme concentration and pretreated with test compounds or 0.1% DMSO as vehicle for 10 min at room temperature. To start the reaction, 50 μM of the PHOME substrate (3-phenyl-cyano(6-methoxy-2-naphthalenyl)methyl ester-2-oxiraneacetic acid), a nonfluorescent compound that is enzymatically converted by sEH into fluorescent 6-methoxy-naphtaldehyde, was added at RT. The reaction was stopped by addition of ZnSO4 (200 mM) after 60 min, and fluorescence was measured (λem 465 nm, λex 330 nm) by employing a NOVOstar microplate reader (BMG LABTECH GmbH, Ortenberg, Germany). If required, the potential fluorescence of test compounds was subtracted from the readout.

monocytes = assay: Cytotoxic activity in monocytes (MTT, metabolic activity after 24 h); type: cell-based, human; settings: metabolic activity (MTT) after 24 h, data not shown in main text (Figure S52)
From the text: The benzyl group appears as a frequently recurring chemical fragment in the architecture of amide or urea-type sEH inhibitors.[4] Therefore, we extracted this common fragment and combined it with benzoxazolone using a urea backbone with the aim of improving a sEH inhibitory potency in the newly designed analogues (Table 2). […] This implies that voluminous substituents at this position are better accommodated at the binding site. […] Taken together, 2- or appropriate 2,4-disubstitution patterns govern potent sEH inhibition in this series. Overall, the preliminary SAR in this work indicated a new favorable structural feature at the right- and left-hand side of the compounds to achieve potent sEH inhibition. Another aspect of characterizing the compounds is determining their cytotoxic activity; for this purpose, we used monocytes due to their high expression of sEH. By applying 33 and 38 to monocytes and measuring the metabolic activity after 24 h, we could exclude cytotoxic activity up to concentrations of 1 μM (data not shown).
The cytotoxic activities of compounds were assessed as previously described.[29] […] The absorbance was determined at 570 nm using a Multiskan Spectrum microplate reader (Thermo Fisher Scientific, Schwerte, Germany). […]

Row | sEH activity % of control at 1 μM (human recombinant sEH) | sEH activity % of control at 10 μM (human recombinant sEH) | IC50 (human recombinant sEH) | melting point | SMILES | concentration up to which cytotoxic activity is excluded (monocytes)
1 | 0.0 ± 0.0 % of control | 0.0 ± 0.0 % of control | 0.7 ± 0.08 nM | 260.9 °C (dec.) | O=C(NCc1ccc(Cl)cc1Cl)Nc1ccc2oc(=O)[nH]c2c1 [Compound 38, 1-[(2,4-Dichlorophenyl)methyl]-3-(2-oxo-2,3-dihydro-1,3-benzoxazol-5-yl)urea] | > 1000 nM
2 | 1.9 ± 3.2 % of control | 6.8 ± 5.9 % of control | 0.39 ± 0.1 nM | – | O=C(NCc1ccccc1OC(F)(F)F)Nc1ccc2oc(=O)[nH]c2c1 [Compound 33, 3-(2-Oxo-2,3-dihydro-1,3-benzoxazol-5-yl)-1-{[2-(trifluoromethoxy)phenyl]methyl}urea] | > 1000 nM
